The first series deals with HBV AD38 viral particles in HepG2 cell line overexpressing NTCP. Briefly: HBV DNA Quantification Assay. Format: cell-based. The settings on record: Hepatitis B virus, HepG2, 120 h, HBV AD38-infected HepG2-NTCP cells, 5 days incubation, HBV DNA in culture supernatant (QuantiGene 2.0); geometric mean of a minimum of four determinations. As for the experimental part:
A HepG2 cell line overexpressing the HBV virus attachment receptor sodium-taurocholate cotransporting polypeptide (NTCP) was grown to confluency in DMEM growth medium, Dulbecco's Modified Eagle Medium without sodium pyruvate (Life Technologies, Rockville, Md.) supplemented with 10% FBS (Thermo Scientific, Waltham, Md.), 1% penicillin/streptomycin (Life Technologies, Rockville, Md.) and 2 mM L-glutamine (Life Technologies, Rockville, Md.) in T175 flasks. Cells were infected with HBV AD38 viral particles (Texcell, Frederick, USA) at 4000 genome equivalents per cell. […] The assay plates were incubated for a period of 5 days and the antiviral activity of the test compounds were assayed by detecting the presence of HBV DNA in the culture supernatant using the QuantiGene™ 2.0 nucleic acid quantification kit (Affymetrix, Santa Clara, Calif.).
The culture supernatant was harvested and treated with lysis buffer containing Proteinase K (Affymetrix, Santa Clara, Calif.). […] After the final wash step, the alkaline phosphatase substrate (Luminol APS5) was added and the resulting luminescence signal was read in an EnVision Multilabel Plate Reader (PerkinElmer, Santa Clara, Calif.). […]
Take `Cc1c(C(=O)C(=O)NC2(c3c[nH]nn3)CC(F)(F)C2)c2n(c1C(=O)Nc1ccnc(C(F)F)c1F)[C@@H]1C[C@@H]1C2` [Example 80, (1aR,6aR)-5-(2-((3,3-difluoro-1-(1H-1,2,3-triazol-4-yl)cyclobutyl)amino)-2-oxoacetyl)-N-(2-(difluoromethyl)-3-fluoropyridin-4-yl)-4-methyl-1,1a,6,6a-tetrahydrocyclopropa[b]pyrrolizine-3-carboxamide]: a half-maximal response (EC50) required 8.7 nM.

Tested on in the next series: not listed separately
Briefly: Hepatic Stability Assay. The series is classed as in vitro ADME. The arrangement: dose or concentration left out as unconfirmed. Conditions: pooled cryopreserved hepatocytes; read-out: t½. The protocol: The metabolic stability of certain compounds disclosed herein was assessed in vitro in pooled cryopreserved hepatocytes using the in vitro half-life method. Incubations were at 37° C. and final concentrations in the incubations were 1×10^6 cells/mL and […] test concentration of the compound. Aliquots were sequentially removed after 0, 1, 3 and 6 hours and analyzed by LC-MS/MS. In vitro half-life was determined by measuring the rate of disappearance of the compound and then scaled to predicted hepatic clearance using the well-stirred model. […] As such, compounds having a value of 39.5 may have a half live that exceeds 39.5 hours.
As for `CNC(=O)C1(NC(=O)C(=O)c2c(C)c(C(=O)Nc3ccc(F)c(C#N)c3)n3c2CCC3)CC(F)(F)C1` [Example 35, N-(3-cyano-4-fluorophenyl)-7-(2-((3,3-difluoro-1-(methylcarbamoyl)cyclobutyl)amino)-2-oxoacetyl)-6-methyl-2,3-dihydro-1H-pyrrolizine-5-carboxamide], the half-life is not below 39.5 h. `CNC(=O)C1(NC(=O)C(=O)c2c(C)c(C(=O)Nc3ccc(F)c(F)c3)n3c2CCC3)CC(F)(F)C1` [Example 44, 7-(2-((3,3-difluoro-1-(methylcarbamoyl)cyclobutyl)amino)-2-oxoacetyl)-N-(3,4-difluorophenyl)-6-methyl-2,3-dihydro-1H-pyrrolizine-5-carboxamide]: the half-life was not below 39.5 h. As to `CNC(=O)C1(NC(=O)C(=O)c2c(C)c(C(=O)Nc3ccc(F)cc3)n3c2CCC3)CC(F)(F)C1` [Example 47, 7-(2-((3,3-difluoro-1-(methylcarbamoyl)cyclobutyl)amino)-2-oxoacetyl)-N-(4-fluorophenyl)-6-methyl-2,3-dihydro-1H-pyrrolizine-5-carboxamide], the half-life is not below 39.5 h.

Turning to `CNC(=O)C1(NC(=O)C(=O)c2c(C)c(C(=O)Nc3ccc(F)c(F)c3)n3c2C[C@@H](F)C3)CC(F)(F)C1` [Example 49, (R)-7-(2-((3,3-difluoro-1-(methylcarbamoyl)cyclobutyl)amino)-2-oxoacetyl)-N-(3,4-difluorophenyl)-2-fluoro-6-methyl-2,3-dihydro-1H-pyrrolizine-5-carboxamide], the half-life was not below 39.5 h.

As to `Cc1c(C(=O)C(=O)NC2(c3c[nH]nn3)CC2)c2n(c1C(=O)Nc1ccnc(C(F)F)c1)[C@@H]1C[C@@H]1C2` [Example 56, (1aR,6aR)-5-(2-((1-(1H-1,2,3-triazol-4-yl)cyclopropyl)amino)-2-oxoacetyl)-N-(2-(difluoromethyl)pyridin-4-yl)-4-methyl-1,1a,6,6a-tetrahydrocyclopropa[b]pyrrolizine-3-carboxamide], the half-life is not below 39.5 h. The same measure, in the same setting: under `Cc1c(C(=O)C(=O)NC2(c3c[nH]nn3)CC2)c2n(c1C(=O)Nc1ccc(F)cc1)CCC2` [Example 70, 7-(2-((1-(1H-1,2,3-triazol-4-yl)cyclopropyl)amino)-2-oxoacetyl)-N-(4-fluorophenyl)-6-methyl-2,3-dihydro-1H-pyrrolizine-5-carboxamide] stands not below 39.5 h; under `Cc1c(C(=O)C(=O)NC2(C)CS(=O)(=O)C2)c2n(c1C(=O)Nc1ccc(F)c(C#N)c1)[C@@H]1C[C@@H]1C2` [Example 72, (1aR,6aR)—N-(3-cyano-4-fluorophenyl)-4-methyl-5-(2-((3-methyl-1,1-dioxidothietan-3-yl)amino)-2-oxoacetyl)-1,1a,6,6a-tetrahydrocyclopropa[b]pyrrolizine-3-carboxamide], not below 39.5 h.

On to `CNC(=O)C1(NC(=O)C(=O)c2c(C)c(C(=O)Nc3cccc(C(F)F)c3)n3c2CCC3)CC(F)(F)C1` [Example 115, 7-(2-((3,3-difluoro-1-(methylcarbamoyl)cyclobutyl)amino)-2-oxoacetyl)-N-(3-(difluoromethyl)phenyl)-6-methyl-2,3-dihydro-1H-pyrrolizine-5-carboxamide], for which the half-life is not below 39.5 h. As for `CNC(=O)C1(NC(=O)C(=O)c2c(C)c(C(=O)Nc3ccc(F)c(C(F)F)c3)n3c2CCC3)CC(F)(F)C1` [Example 116, 7-(2-((3,3-difluoro-1-(methylcarbamoyl)cyclobutyl)amino)-2-oxoacetyl)-N-(3-(difluoromethyl)-4-fluorophenyl)-6-methyl-2,3-dihydro-1H-pyrrolizine-5-carboxamide], the half-life is not below 39.5 h. Same read-out and setting: under `Cc1c(C(=O)C(=O)N[C@](C)(C(N)=O)C(F)(F)F)c2n(c1C(=O)Nc1ccc(F)c(F)c1)CCC2` [Example 135] stands not below 39.5 h.

On to `Cc1c(C(=O)C(=O)N[C@@](C)(C(N)=O)C(F)(F)F)c2n(c1C(=O)Nc1ccc(F)c(F)c1)CCC2` [Example 136], for which the half-life is not below 39.5 h.

For orientation: EC50 means the concentration that produces a half-maximal response.

For the origin of these results see patent US10874640B2 (GILEAD SCIENCES, INC., priority 2016, dated 2020).
